# Results as given in ChEMBL document CHEMBL6182921, “Structural Optimization of Next-Generation TRK Inhibitors against Acquired Drug Resistance Mutations for the Treatment of Solid Tumors” (J Med Chem, 2025).
# Legend:
# BaF3 [1] = assay: cells; conditions: Mus musculus, BaF3, 72 h
# Description: Antiproliferative activity against mouse BaF3 cells harbouring xDFG (TRKA-G667C) mutation measured after 72 hrs by Cell-titer glo assay
# BaF3 [2] = assay: Antiproliferative activity against mouse BaF3 cells harbouring MPRIP-TRKA G595R mutant assessed as inhibition of cell growth at 1000 nmol/L measured after 72 hrs by CCK-8 method relative to control; type: functional
# BaF3 [3] = assay: cells; conditions: Mus musculus, BaF3, 72 h; remark: listed apart in the source
# Description: Antiproliferative activity against mouse BaF3 cells harbouring MPRIP-TRKA G667C mutant assessed as inhibition of cell growth measured after 72 hrs by CCK-8 method
# BaF3 [4] = assay: Antiproliferative activity against mouse BaF3 cells harbouring MPRIP-TRKA G595R mutant assessed as inhibition of cell growth measured after 72 hrs by CCK-8 method; type: functional, cell-based; conditions: BaF3, 72 h
# [5] = target: High affinity nerve growth factor receptor (Homo sapiens, UniProt P04629)
# Sequence of High affinity nerve growth factor receptor (P04629 whole entry): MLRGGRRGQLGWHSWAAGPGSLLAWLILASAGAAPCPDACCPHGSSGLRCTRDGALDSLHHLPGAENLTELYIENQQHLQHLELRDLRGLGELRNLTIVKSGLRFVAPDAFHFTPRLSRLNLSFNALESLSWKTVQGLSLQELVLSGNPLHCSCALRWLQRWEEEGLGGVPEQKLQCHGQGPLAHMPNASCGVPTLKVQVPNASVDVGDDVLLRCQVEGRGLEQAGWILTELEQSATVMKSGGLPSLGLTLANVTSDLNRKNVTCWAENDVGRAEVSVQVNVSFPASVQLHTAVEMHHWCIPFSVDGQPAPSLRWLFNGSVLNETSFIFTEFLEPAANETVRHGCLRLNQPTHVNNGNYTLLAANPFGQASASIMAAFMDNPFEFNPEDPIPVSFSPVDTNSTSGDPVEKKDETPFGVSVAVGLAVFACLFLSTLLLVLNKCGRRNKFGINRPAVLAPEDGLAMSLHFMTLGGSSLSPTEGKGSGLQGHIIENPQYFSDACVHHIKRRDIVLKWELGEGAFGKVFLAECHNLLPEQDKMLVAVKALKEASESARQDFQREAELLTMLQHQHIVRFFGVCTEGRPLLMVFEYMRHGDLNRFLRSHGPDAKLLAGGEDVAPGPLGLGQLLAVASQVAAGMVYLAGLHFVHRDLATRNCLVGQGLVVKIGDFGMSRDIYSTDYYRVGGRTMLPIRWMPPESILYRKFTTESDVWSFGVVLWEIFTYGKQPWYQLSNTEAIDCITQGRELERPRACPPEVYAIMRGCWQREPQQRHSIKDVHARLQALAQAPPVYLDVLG
# Description: Inhibition of TRKA (unknown origin) incubated for 1 hr in presence of ATP by ELISA method
# BaF3 [6] = type: functional, cell-based; conditions: Mus musculus
smiles,measurement,setting,value
C[C@H]1CNC(=O)c2cnn3ccc(nc23)N[C@H](C)c2cc(F)ccc2O1 [REPOTRECTINIB],IC50,BaF3 [1],15 nM
CCCN(CCC)Cc1ccc(NC(=O)c2cc(N3CCC[C@@H]3c3cc(F)ccc3F)c[nH]c2=O)cc1,inhibition at 1 µM,BaF3 [2],45.2%
same,IC50,BaF3 [3],184 nM
C[C@@H]1CCc2ncc(F)cc2[C@H]2CCCN2c2ccn3ncc(c3n2)C(=O)N1 [SELITRECTINIB],IC50,BaF3 [4],37.9 nM
same,IC50,BaF3 [3],171 nM
same,IC50,BaF3 [1],124 nM
CC1CN(Cc2ccc(NC(=O)c3cc(N4CCC[C@@H]4c4cc(F)ccc4F)c[nH]c3=O)cc2)CCN1S(=O)(=O)N1CCOCC1 (stereo not given in full),IC50,BaF3 [4],> 1000 nM
same,IC50,[5],1.6 nM
same,IC50,BaF3 [3],112 nM
C[C@@H](N)COc1ccc(-c2cnc3ccc(N[C@H](C)c4cccc(F)c4)nn23)cc1 [TALETRECTINIB],IC50,BaF3 [6],304 nM
